# According to patent US9040542B2, “Solid forms of gyrase inhibitor (R)-1-ethyl-3-[6-fluoro-5-[2-(1-hydroxy-1-methyl-ethyl)pryimidin-5-yl]-7-(tetrahydrofuran-2-yl)-1H-benzimidazol-2-yl]urea” (priority 2011, dated 2015):
# Values joined by “and” are separate entries in the source; they are usually repeats but may differ in a detail not shown here. Identical values can stand only once.
# Legend:
# [1] = tested on: β-haemolytic streptococci (Groups A, B, C and G); assay: MIC90 panel, Protocol #1 microdilution broth; assay type: cell-based; conditions: 28 isolates
# [2] = tested on: Staphlococcus epidermidis; assay: MIC90 panel, Protocol #1 microdilution broth; assay type: cell-based, Staphylococcus epidermidis; conditions: 35 isolates
# M. abscessus MC 5922 = assay: MIC, Protocol #4 Mycobacterium species; assay type: cell-based
# Fusobacterium spp. = assay: MIC90 panel, Protocol #3 agar dilution; assay type: cell-based; conditions: 16 isolates
# [3] = tested on: Moraxella catarrhalis ATCC 49143; assay: MIC, Protocol 2 microdilution broth, Gram negatives; design: unit not given beside the values
# [4] = tested on: Neisseria gonorrhoeae ATCC 49226; assay: MIC, Protocol #3 agar dilution; assay type: cell-based
# [5] = tested on: Bacillus subtilis ATCC 6638; assay: MIC, Protocol #1 microdilution broth; assay type: cell-based
# M. abscessus BB3 = assay: MIC, Protocol #4 Mycobacterium species; assay type: cell-based
# Staphylococcus aureus = assay: MIC90 panel, Protocol #1 microdilution broth; assay type: cell-based; conditions: 67 isolates
# Mycobacterium avium 103 = assay: MIC, Protocol #4 Mycobacterium species; assay type: cell-based
# M. abscessus BB8 = assay: MIC, Protocol #4 Mycobacterium species; assay type: cell-based
# M. abscessus MC 5901 = assay: MIC, Protocol #4 Mycobacterium species; assay type: cell-based
# [6] = Stability data of solid forms on storage; assay type: physicochemical
# M. abscessus MC 6111 = assay: MIC, Protocol #4 Mycobacterium species; assay type: cell-based
# Nocardia caviae 2497 = assay: MIC, Protocol #4 Mycobacterium species; assay type: cell-based
# Protocol: Protocol #4. MIC Determination Procedure for Mycobacterium Species
# Inoculum Preparation for M. kansasii, M. avium, M. abscessus and Nocardia spc.: • 1. Used prepared frozen stock of culture or a fresh culture grown in 7H10 broth at a concentration of 10 Klett or 5×10^7/ml. • 2. Prepared a 1:20 dilution by removing 1.0 ml of the culture stock and added it to 19 ml of 7H10 broth (final concentration 2.5×10^6 cfu/ml). • 3. From this dilution prepared a 1:20 dilution, removed 1 ml and added it to 19 ml of fresh broth (final suspension).
# Plate Preparation: • 1. Labeled plates. • 2. Added 50 μl of 7H10 broth +10% OADC to all wells being utilized for MIC determination using a multichannel electronic pipettor. • 3. Prepared stock solutions of drugs (e.g. 1 mg/ml concentration) to be tested. • 4. Thawed and diluted frozen stock solutions using 7H10 broth +10% OADC to obtain a working solution 4× the maximum concentration tested (e.g. final concentration 32 μg/ml, highest concentration tested was 8 μg/ml). Dilutions were made from the stock solution. To start at a concentration of 1 μg/ml, the drugs were prepared at 4 μg/ml, so the starting concentration was 1 μg/ml. Removed 25 μl of the 1 mg/ml stock and added to 6.2 ml of broth. All dilutions of drugs were done in broth. • 5. Added 50 μl of the 4× working solution to the first well of the designated row. […] Read visually and recorded the results.
# M. kansasii 379 = assay: MIC, Protocol #4 Mycobacterium species; assay type: cell-based
# M. abscessus MC 5908 = assay: MIC, Protocol #4 Mycobacterium species; assay type: cell-based; conditions: in µg/mL
# [7] = tested on: Streptococcus pneumoniae ATCC 10015; assay: MIC, Protocol #1 microdilution broth; assay type: cell-based; conditions: Streptococcus pneumoniae ATCC 10015, with Laked Horse Blood
# Bacteroides fragilis = assay: MIC90 panel, Protocol #3 agar dilution; assay type: cell-based; conditions: 25 isolates
# M. avium 3404.4 = assay: MIC, Protocol #4 Mycobacterium species; assay type: cell-based
# N. nova 10 = assay: MIC, Protocol #4 Mycobacterium species; assay type: cell-based
# Enterococcus faecium = assay: MIC90 panel, Protocol #1 microdilution broth; assay type: cell-based; conditions: 33 isolates
# [8] = tested on: Bacillus cereus ATCC 10987; assay: MIC, Protocol #1 microdilution broth; assay type: cell-based
# M. abscessus BB4 = assay: MIC, Protocol #4 Mycobacterium species; assay type: cell-based
# [9] = tested on: Staphylococcus aureus ATCC 29213 GyrB T173I; assay: MIC, Protocol #1 microdilution broth; assay type: cell-based
# M. abscessus MC 6142 = assay: MIC, Protocol #4 Mycobacterium species; assay type: cell-based
# [10] = tested on: Neisseria gonorrhoeae ATCC 35541; assay: MIC, Protocol #3 agar dilution; assay type: cell-based
# [11] = tested on: Enterococcus faecalis ATCC 29212; assay: MIC, Protocol #1 microdilution broth; assay type: cell-based; conditions: Enterococcus faecalis ATCC 29212, with Laked Horse Blood
# M. abscessus BB6 = assay: MIC, Protocol #4 Mycobacterium species; assay type: cell-based
# M. abscessus MC 5812 = assay: MIC, Protocol #4 Mycobacterium species; assay type: cell-based
# M. abscessus MC 6025 = assay: MIC, Protocol #4 Mycobacterium species; assay type: cell-based
# M. abscessus MC 6005 = assay: MIC, Protocol #4 Mycobacterium species; assay type: cell-based
# Clostridium difficile = assay: MIC90 panel, Protocol #3 agar dilution; assay type: cell-based; conditions: 16 isolates
# Escherichia coli CHE30 = assay: MIC, Protocol 2 microdilution broth, Gram negatives; assay type: cell-based
# From the text: (§1) The specific protocols used were as follows:
# (§2) Drug dilutions, inoculation, MIC determination: • 1.
# [12] = tested on: Pseudomonas aeruginosa PAO750; assay: as above; assay type: cell-based
# From the text: as §1, §2
# [13] = tested on: Bacteroides and Parabacter spp.; assay: MIC90 panel, Protocol #3 agar dilution; assay type: cell-based; conditions: 26 isolates
compound,measurement,setting,value
"CCNC(=O)Nc1nc2cc(-c3cnc(C(C)(C)O)nc3)c(F)c([C@H]3CCCO3)c2[nH]1 [Compound 24, 1-ethyl-3-[6-fluoro-5-[2-(1-hydroxy-1-methyl-ethyl)pyrimidin-5-yl]-7-[(2R)-tetrahydrofuran-2-yl]-1H-benzimidazol-2-yl]urea]",MIC90,[1],0.12 µg/mL
same,MIC Range,[1],0.015 to 0.12 µg/mL
same,MIC Range,[2],0.008 to 0.03 µg/mL
same,MIC90,[2]; Staphylococcus epidermidis,0.03 µg/mL
same,MIC,M. abscessus MC 5922,0.25 µg/mL
same,MIC90,Fusobacterium spp.,> 16 µg/mL
same,MIC,[3],≦0.016
same,MIC,[4],1 µg/mL
same,MIC,[5],2 µg/mL
same,MIC,M. abscessus BB3,0.5 µg/mL
same,MIC90,Staphylococcus aureus,0.03 µg/mL
same,MIC Range,Staphylococcus aureus,0.008 to 0.06 µg/mL
same,MIC,Mycobacterium avium 103,0.18 µg/mL
same,MIC,M. abscessus BB8,0.5 µg/mL
same,MIC,M. abscessus MC 5901,1 µg/mL
same,chemical and physical stability,"[6]; 25° C./60% RH, one week time point",chemically and physically unstable
same,chemical stability,"[6]; 40° C./ambient, t=2 weeks",chemically unstable
same,MIC,M. abscessus MC 6111,0.5 µg/mL
same,MIC,Nocardia caviae 2497,0.125 µg/mL
same,MIC,M. kansasii 379,< 0.015 µg/mL
same,MIC,M. abscessus MC 5908,1 and 1.5
same,MIC,[7],0.01 µg/mL
same,MIC90,Bacteroides fragilis,16 µg/mL
same,MIC Range,Bacteroides fragilis,1 to 16 µg/mL
same,MIC,M. avium 3404.4,0.23 µg/mL
same,MIC,N. nova 10,1 µg/mL
same,MIC90,Enterococcus faecium,0.12 µg/mL
same,MIC Range,Enterococcus faecium,0.003 to 0.25 µg/mL
same,MIC,[8],0.031 µg/mL
same,MIC,M. abscessus BB4,2 µg/mL
same,MIC,[9],0.3 µg/mL
same,MIC,M. abscessus MC 6142,0.5 µg/mL
same,MIC,[10],0.42 µg/mL
same,MIC,[11],0.028 µg/mL
same,MIC,M. abscessus BB6,0.5 µg/mL
same,MIC,M. abscessus MC 5812,1 µg/mL
same,MIC,M. abscessus MC 6025,0.75 µg/mL
same,MIC,M. abscessus MC 6005,1 µg/mL
same,MIC Range,Clostridium difficile,0.06 to 4 µg/mL
same,MIC90,Clostridium difficile; Clostridioides difficile,0.25 µg/mL
same,MIC,Escherichia coli CHE30,8 µg/mL
same,MIC,[12],0.25 µg/mL
same,MIC90,[13],16 µg/mL
same,MIC Range,[13],0.12 to 16 µg/mL
